Measured values reported in patent US5126057A, “Disinfecting with N,N'-dihaloimidazolidin-4-ones” (Auburn Research Foundation, priority 1991, dated 1992).

Key:
[1] = tested on: bacteria; assay: Bactericidal efficacy, summary over all bacteria and conditions; format: cell-based, Staphylococcus aureus and Pseudomonas aeruginosa; settings: for bactericidal efficiency (in words): Table V conditions
Method: (§1) The halogenated imidazolidin-4-one derivatives prepared as in examples 3, 5, and 6 (Compounds 1, 5, and 3, respectively) were tested as bactericides against the microorganisms Staphylococcus aureus (ATCC25923) and Pseudomonas aeruginosa (ATCC 27853) in demand-free water (DFW) as a function of pH and temperature and in a synthetic-demand water (SDW) at pH 9.5 and 4° C. The demand-free and synthetic-demand waters were prepared as described in examples 7 and 12, respectively.
(§2) For the bactericidal efficacy tests 50 milliliters of buffered DFW or SDW were placed in a 125 milliliter flask which was then inoculated with the organism to be tested such that the final density of the organism was about 1×10^6 cfu/ml (colony forming units per milliliter). The inoculated solution was allowed to equilibrate at the test temperature by immersion in a thermostated water bath for 15 minutes with constant stirring. Then an appropriate amount of an aqueous solution containing the test halogenated imidazolidin-4-one compound maintained at the same test temperature was added to the inoculated solution to bring the total concentration of potential positive halogen (Cl^+ or Cl^+ /Br^+) in the mixture to a predetermined level (10 parts per million and 5 parts per million Cl^+ from compounds 1 and 3; the molar equivalent in Cl^+ /Br^+ from Compound 5). 1 milliliter aliquots were removed from the test mixture at various predetermined times, and the active halogen was quenched by 1 milliliter portions of sterile 0.02 Normal sodium thiosulfate. Serial dilutions were made into sterile saline, and three 25 microliter aliquots of each of the resulting dilutions were applied to the dried surface of a Petri dish containing tryptic soy and nutrient agars for plating S. aureus and P. aeruginosa, respectively. After 48 hours at 37° C. the three replicates for each dilution were counted and averaged. This average was used to compute the cfu/ml for that particular aliquot. Inactivation of the organism was considered to be at least 99.9999 percent when no colonies were detected in the thiosulfate quenched aliquots.

[2] = Laboratory stability in halogen demand-free water (DFW), iodometric titration; format: physicochemical; settings: for remaining at 23.52 h / remaining at 119.28 h / remaining at 168 h / remaining at 336 h / remaining at 504 h / remaining at 672 h / remaining at 840 h / remaining at 1008 h / remaining at 95.76 h: demand-free water
Method: The stability of 1,3-dichloro-2,2,5,5-tetramethylimidazolidin-4-one (Compound 1) in halogen demand-free water was determined at 22° C. and pH values of 4.5, 7.0, and 9.5, and the results were compared to those for free chlorine as supplied by calcium hypochlorite. The demand-free water (DFW) was prepared by chlorination of distilled, deionized water buffered to the appropriate pH followed by dechlorination (of the excess free chlorine) by exposure to direct sunlight until no free chlorine remained. This treatment insured that all halogen demand in the water was neutralized. Then Compound 1 and calcium hypochlorite were separately dissolved in identical DFW (buffered to an appropriate pH) solutions to the same final total chlorine concentrations (10 milligrams per liter potential positive chlorine). The solutions in separate flasks, which were stoppered with porous, sterile cotton plugs to allow free exchange with laboratory air, were then held at a constant temperature of 22° C. by means of a controlled water bath for a period of several weeks. Aliquots were withdrawn periodically (at least weekly), and the total positive chlorine remaining was determined in triplicate by standard iodometric titration. […]
The stabilities of 1,3-dibromo-2,2,5,5-tetramethylimidazolidin-4-one (Compound 4) and 1-bromo-3-chloro-2,2,5,5-tetramethylimidazolidin-4-one (Compound 5) in halogen demand-free water (DFW) were determined at 22° C. and pH values of 7.0 and 9.5 using the same procedures as discussed under example 9. Given the instability of Compound 1 at pH 4.5 (example 9), it was deemed unnecessary to test compounds 4 and 5 at that pH. The two compounds were dissolved in DFW buffered to the appropriate pH in separate flasks and held at a temperature of 22° C. by means of a constant temperature bath. The starting concentrations of total potential positive halogen in the two solutions were 22.6 milligrams per liter for Compound 4 and 16.25 milligrams per liter for Compound 5; these concentrations represent the molar equivalents in total potential positive halogen to that used for Compound 1 in example 9. The solutions were analyzed in the manner described in example 9.

[3] = Stability in synthetic halogen demand water (SDW); format: physicochemical; settings: 4° C.; for stability (in words): heavy halogen demand (SDW), pH 9.5; for remaining at 0.083 h: pH 9.5, 0.083 hrs; for remaining at 0.5 h: pH 9.5, 0.5 hrs; for remaining at 2 h: pH 9.5, 2.0 hrs; for remaining at 24 h: pH 9.5, 24.0 hrs; for remaining at 1 h: pH 9.5, 1.0 hrs; for remaining at 4 h: pH 9.5, 4.0 hrs
Method: A synthetic halogen demand water (SDW) was prepared by mixing the following substances with demand-free water (DFW): 375 milligrams per liter of each of the inorganic salts sodium chloride, potassium chloride, calcium chloride, and magnesium chloride; 50 milligrams per liter of Bentonite clay; 30 milligrams per liter of humic acid; 0.01 percent final concentration of heat-treated horse serum; and 5×10^5 cells per milliliter of heat-killed Saccharomyces cerevisiae yeast cells. The SDW solution was buffered with 0.01 Molar borate/sodium hydroxide to a pH of 9.5 and held at 4° C. during the experiments. The conditions of high ionic strength, turbidity, and organic material, and alkaline pH at low temperature, are viewed as a worst-case scenario for disinfection applications and thus should provide the optimum test of stability for the new compounds.
In separate flasks were dissolved compounds 1, 2, 3, and 5 to a starting concentration of 10 milligrams per liter total potential positive chlorine or its molar equivalent (16.25 milligrams per liter) in total potential positive halogen for Compound 5. Aliquots were withdrawn frequently over a period of more than 90 hours, and the percent positive halogen remaining was determined by standard iodometric titration.

[4] = tested on: Staphylococcus aureus (ATCC25923); assay: Bactericidal efficacy, percent inactivation of S. aureus; format: cell-based; settings: for killing at 5 ppm: DFW; for killing at 10 ppm: SDW
Method: as §1, §2

[5] = synthetic halogen demand water, SDW, read-out: Percent Halogen Remaining
[6] = ATCC25923, 5 min, pH 4.5, pH 4.5, 22° C., 5 minutes
[7] = ATCC25923, 5 min, pH 7, pH 7.0, 22° C., 5 minutes
[8] = ATCC25923, 5 min, pH 9.5, pH 9.5, 4° C., 5 minutes
[9] = ATCC25923, 5 min, pH 9.5, pH 9.5, 22° C., 5 minutes
[10] = ATCC25923, 10 min, pH 4.5, pH 4.5, 22° C., 10 minutes
[11] = ATCC25923, 10 min, pH 7, pH 7.0, 22° C., 10 minutes
[12] = ATCC25923, 10 min, pH 9.5, pH 9.5, 4° C., 10 minutes
[13] = ATCC25923, 10 min, pH 9.5, pH 9.5, 22° C., 10 minutes

SMILES: CC1(C)NC(=O)C(C)(C)N1Cl [Compound 3, 1-chloro-2,2,5,5-tetramethylimidazolidin-4-one]
- bactericidal efficiency (in words) [1]: least efficient
- inactivation ([1]; all conditions tested, given sufficient contact time): greater than 99.9999%
- stability (in words) ([2]; pH 7): more stable than Compound 1 and considerably more stable than free chlorine (Compound 2) in DFW at pH 7.0 and 22 °C
- stability (in words) [3]: extremely stable in the presence of heavy demand
- remaining at 0.083 h [3, 5]: 99.2%
- remaining at 0.5 h [3, 5]: 96.6%
- remaining at 2 h [3, 5]: 95.4%
- remaining at 8 h ([3]; synthetic halogen demand water, SDW, pH 9.5, 8.0 hrs, read-out: Percent Halogen Remaining): 94.1%
- remaining at 24 h [3, 5]: 94.9%
- remaining at 48 h ([3]; synthetic halogen demand water, SDW, pH 9.5, 48.0 hrs, read-out: Percent Halogen Remaining): 94.5%
- remaining at 72 h ([3]; synthetic halogen demand water, SDW, pH 9.5, 72.0 hrs, read-out: Percent Halogen Remaining): 94.1%
- remaining at 122 h ([3]; synthetic halogen demand water, SDW, pH 9.5, 122.0 hrs, read-out: Percent Halogen Remaining): 94.1%
- killing at 5 ppm [4, 6]: 87.4%
- killing at 5 ppm [4, 7]: 0%
- killing at 10 ppm [4, 8]: 2.86%
- killing at 5 ppm [4, 9]: 32.7%
- killing at 5 ppm [4, 10]: 96.3%
- killing at 5 ppm [4, 11]: 4.42%
- killing at 10 ppm [4, 12]: 0%
- killing at 5 ppm [4, 13]: 50.2%

SMILES: CC1(C)C(=O)N(Cl)C(C)(C)N1Br [Compound 5, 1-bromo-3-chloro-2,2,5,5-tetramethylimidazolidin-4-one]
- reduction of bacteria ([1]; all conditions, less than or equal 5 minutes of contact time, even in SDW): greater than 99.9999%
- remaining at 23.52 h ([2]; pH 7): 97.3%
- remaining at 119.28 h ([2]; pH 7): 95.4%
- remaining at 168 h ([2]; pH 7): 91.7%
- remaining at 336 h ([2]; pH 7): 88.2%
- remaining at 504 h ([2]; pH 7): 75%
- remaining at 672 h ([2]; pH 7): 45.9%
- remaining at 840 h ([2]; pH 7): 17.5%
- remaining at 1008 h ([2]; pH 7): 7.6%
- remaining at 23.52 h ([2]; pH 9.5): 96.3%
- remaining at 119.28 h ([2]; pH 9.5): 89.5%
- remaining at 168 h ([2]; pH 9.5): 88.3%
- remaining at 336 h ([2]; pH 9.5): 86.3%
- remaining at 504 h ([2]; pH 9.5): 70.8%
- remaining at 672 h ([2]; pH 9.5): 60.8%
- remaining at 840 h ([2]; pH 9.5): 46.8%
- remaining at 1008 h ([2]; pH 9.5): 38.4%
- stability (in words), against free chlorine ([2]; pH 9.5): comparable in stability to free chlorine (see data in example 9) at pH 9.5 only
- stability (in words) [3]: comparable in stability to free chlorine under these conditions
- remaining at 0.008 h ([3]; synthetic halogen demand water, SDW, pH 9.5, 0.008 hrs, read-out: Percent Halogen Remaining): 64%
- remaining at 0.167 h ([3]; synthetic halogen demand water, SDW, pH 9.5, 0.167 hrs, read-out: Percent Halogen Remaining): 49.9%
- remaining at 0.5 h [3, 5]: 47.1%
- remaining at 1 h [3, 5]: 47.4%
- remaining at 4 h [3, 5]: 41.9%
- remaining at 24 h [3, 5]: 38.2%
- remaining at 94 h ([3]; synthetic halogen demand water, SDW, pH 9.5, 94.0 hrs, read-out: Percent Halogen Remaining): 31.8%
- killing at 5 ppm [4, 6]: > 100%
- killing at 5 ppm [4, 7]: > 100%
- killing at 5 ppm [4, 8]: > 100%
- killing at 10 ppm [4, 8]: > 100%
- killing at 5 ppm [4, 9]: > 100%
- killing at 5 ppm [4, 10]: > 100%
- killing at 5 ppm [4, 11]: > 100%
- killing at 5 ppm [4, 12]: > 100%
- killing at 10 ppm [4, 12]: > 100%
- killing at 5 ppm [4, 13]: > 100%

SMILES: CC1(C)C(=O)N(Cl)C(C)(C)N1Cl [Compound 1, 1,3-dichloro-2,2,5,5-tetramethylimidazolidin-4-one]
- bactericidal efficiency (in words) [1]: reasonably efficient as a bactericide
- stability (in words), against Compounds 4 and 5 [2]: considerably more stable in DFW at pH values of 7.0 and 9.5 and 22 °C than are Compounds 4 and 5
- remaining at 23.52 h ([2]; pH 4.5): 100%
- remaining at 95.76 h ([2]; pH 4.5): 88.9%
- remaining at 168 h ([2]; pH 4.5): 77.6%
- remaining at 336 h ([2]; pH 4.5): 55.5%
- remaining at 504 h ([2]; pH 4.5): 40.4%
- remaining at 672 h ([2]; pH 4.5): 30.7%
- remaining at 840 h ([2]; pH 4.5): 26%
- remaining at 1008 h ([2]; pH 4.5): 23.5%
- remaining at 168 h ([2]; pH 7): 97.1%
- remaining at 336 h ([2]; pH 7): 95%
- remaining at 504 h ([2]; pH 7): 93.5%
- remaining at 672 h ([2]; pH 7): 90.6%
- remaining at 840 h ([2]; pH 7): 86%
- remaining at 1008 h ([2]; pH 7): 83.4%
- remaining at 23.52 h ([2]; pH 9.5): 96.5%
- remaining at 95.76 h ([2]; pH 9.5): 98.9%
- remaining at 168 h ([2]; pH 9.5): 95.1%
- remaining at 336 h ([2]; pH 9.5): 89.4%
- remaining at 504 h ([2]; pH 9.5): 82.6%
- remaining at 672 h ([2]; pH 9.5): 72.3%
- remaining at 840 h ([2]; pH 9.5): 63.7%
- remaining at 1008 h ([2]; pH 9.5): 55.1%
- stability (in words) ([2]; pH 4.5): rather unstable in acidic DFW (pH 4.5)
- stability (in words) ([2]; pH 7): considerably more stable in DFW at pH 7.0 at 22 °C than is free chlorine
- stability (in words), against free chlorine ([2]; pH 9.5): more stable than free chlorine in alkaline DFW (pH 9.5)
- stability (in words) [3]: much more stable under these conditions than is free chlorine
- remaining at 0.083 h [3, 5]: 98.8%
- remaining at 0.25 h ([3]; synthetic halogen demand water, SDW, pH 9.5, 0.25 hrs, read-out: Percent Halogen Remaining): 98.8%
- remaining at 0.5 h [3, 5]: 93.1%
- remaining at 1 h [3, 5]: 92.4%
- remaining at 2 h [3, 5]: 92.4%
- remaining at 4 h [3, 5]: 88.8%
- remaining at 25 h ([3]; synthetic halogen demand water, SDW, pH 9.5, 25.0 hrs, read-out: Percent Halogen Remaining): 71.4%
- remaining at 93 h ([3]; synthetic halogen demand water, SDW, pH 9.5, 93.0 hrs, read-out: Percent Halogen Remaining): 60.2%
- killing at 5 ppm [4, 6]: 100%
- killing at 5 ppm [4, 7]: 89.1%
- killing at 5 ppm [4, 8]: 71.3%
- killing at 10 ppm [4, 8]: 43.8%
- killing at 5 ppm [4, 9]: > 100%
- killing at 5 ppm [4, 10]: > 100%
- killing at 5 ppm [4, 11]: 99.1%
- killing at 5 ppm [4, 12]: 80.9%
- killing at 10 ppm [4, 12]: 68.1%
- killing at 5 ppm [4, 13]: > 100%
